Laboratory results published in ChEMBL document CHEMBL4038348 (J Med Chem, 2017).

Experiment: physchem
Conditions: octanol/water, pH 7.4
Description: 1-octanol/aqueous buffer solution partition coefficient, log D of the compound at pH 7.4 by UV-HPLC method

logD | Structure (SMILES)
3.13 | CCC(NC(=O)N1CC(=O)Nc2cccnc21)c1ccc(N2CCC2)cc1 (configuration not stated)
3.03 | COCC(NC(=O)N1CC(=O)Nc2cc(OC)cnc21)c1ccc(C(F)(F)F)cc1 (stereo in doubt; 34)
